Test results taken from ChEMBL document CHEMBL1133031, “Salicylamide inhibitors of influenza virus fusion” (Bioorg Med Chem Lett, 2000).
In brackets after ≈: the same amount, converted by molar mass.

Experiments:
[1] = Tested for activity against A/WSN/33 influenza strain-induced toxicity in MDBK cells by using cell protection assay; format: functional, organism-based
[2] = The cytotoxic activity was evaluated in MDBK cells; format: functional; conditions: Bos taurus
[3] = Tested for activity against A/WSN/33 influenza strain-induced toxicity in MDBK cells by using cell protection assay; Not active; format: functional, organism-based
[4] = The compound was tested for activity against A/WSN/33 influenza strain-induced toxicity in MDBK cells by using cell protection assay; Not active at 50 ug/mL; format: functional, cell-based, Bos taurus

SMILES | EC50 [1] [µg/mL] | CC50 [2] [µg/mL] | EC50 [3] | EC50 [4]
Cc1ccc(O)c(C(=O)NCCCN2[C@H](C)CC[C@@H]3CCCC[C@@H]32)c1 | 0.19 (≈ 0.552 µM) | 35 (≈ 102 µM) |  | 
C[C@@H]1CCC[C@@H]2C[C@@H](NC(=O)c3cc(Cl)ccc3O)CCN21 | 0.8 (≈ 2.48 µM) | > 200 |  | 
O=C(NCCCN1CCC[C@@H]2CCCC[C@H]21)c1cc(Cl)ccc1O | 1.4 (≈ 3.99 µM) | 45 (≈ 128 µM) |  | 
Cc1ccc(O)c(C(=O)NCCCN2C(C)CC[C@@H]3CCCC[C@H]32)c1 (single isomer, unassigned) | 1.5 (≈ 4.35 µM) | 30 (≈ 87.1 µM) |  | 
CN1C2CCC1CC(NC(=O)c1cc(Cl)ccc1O)C2 (centres undefined) |  | 100 (≈ 339 µM) | Not Active | 
Cc1ccc(O)c(C(=O)NCCCN2CCC[C@@H]3CCCC[C@H]32)c1 | 0.35 (≈ 1.06 µM) | 60 (≈ 182 µM) |  | 
Cc1ccc(O)c(C(=O)NCCCN2CCC[C@@H]3CCCC[C@@H]32)c1 | 0.65 (≈ 1.97 µM) | > 100 |  | 
Cc1ccc(O)c(C(=O)NCCCCN2[C@H](C)CCC[C@@H]2C)c1 | 0.7 (≈ 2.2 µM) | > 100 |  | 
Cc1ccc(O)c(C(=O)NCCCN(C(C)C)C(C)C)c1 | 0.9 (≈ 3.08 µM) | > 100 |  | 
CCC(C)N1CCC(NC(=O)c2cc(C)ccc2O)CC1 (centres undefined) |  | 100 (≈ 344 µM) |  | Not Active
Cc1ccc(O)c(C(=O)NC2CC3CCC(C2)N3C)c1 (centres undefined) |  | 100 (≈ 364 µM) | Not Active | 
Cc1ccc(O)c(C(=O)NCCCN2C(C(C)C)CC[C@@H]3CCCC[C@@H]32)c1 (some centres undefined) | 0.25 (≈ 0.671 µM) | 80 (≈ 215 µM) |  | 
C[C@@H]1CCC[C@H](C)N1CCCCNC(=O)c1cc(Cl)ccc1O | 1 (≈ 2.95 µM) | 100 (≈ 295 µM) |  | 
CC1CC[C@@H]2CCCC[C@@H]2N1CCCNC(=O)c1cc(Cl)ccc1O (some centres undefined) | 0.09 (≈ 0.247 µM) | 40 (≈ 110 µM) |  | 
C[C@@H]1CCC[C@H](C)N1CCCNC(=O)c1cc(Cl)ccc1O | 4.5 (≈ 13.9 µM) | 30 (≈ 92.3 µM) |  | 
Cc1ccc(O)c(C(=O)NCCCN2[C@@H](C)CC[C@@H]3CCCC[C@@H]32)c1 | 6 (≈ 17.4 µM) | > 100 |  | 
Cc1ccc(O)c(C(=O)NCCCCN2C(C)CC[C@@H]3CCCC[C@@H]32)c1 (some centres undefined) |  | 90 (≈ 251 µM) | Not Active | 
Cc1ccc(O)c(C(=O)NCCCN2CCC(C)[C@@H]3CCCC[C@@H]32)c1 (some centres undefined) |  | 100 (≈ 290 µM) | Not Active | 
O=C(NCCCN1CCC[C@@H]2CCCC[C@@H]21)c1cc(Cl)ccc1O | 1.4 (≈ 3.99 µM) | 43 (≈ 123 µM) |  | 
Cc1ccc(O)c(C(=O)NCCCN2CC(C)C[C@@H]3CCCC[C@@H]32)c1 (some centres undefined) |  | 9.5 (≈ 27.6 µM) | Not Active | 
Cc1ccc(O)c(C(=O)NCCCN2[C@H](C)CCC[C@@H]2C)c1 | 1.8 (≈ 5.91 µM) | > 100 |  | 
Cc1ccc(O)c(C(=O)NCCCCN2CCC[C@@H]3CCCC[C@@H]32)c1 |  | 30 (≈ 87.1 µM) | Not Active | 
